Legend:
pSTAT3 (pY705-STAT3) = molecular target: T1, pSTAT3 (pY705-STAT3) (Homo sapiens, UniProt P40763); assay: MSD-pSTAT-PBMC Assay (pSTAT3, IL-6 stimulated); type: cell-based; conditions: PBMC, compound 3 hrs, then 10 ng/mL IL-6 for 10 min; MSD pY705-STAT3; read-out: pSTAT3
T1 construct: host or cells: cryopreserved PBMC
In short: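 Human PBMCs (50,000 cells/well for STAT3, 25,000 for STAT6) treated with compound 3 h, then stimulated 10 min with 10 ng/mL IL-6 or 1 ng/mL IL-4. Lysate pSTAT3 (pY705) or pSTAT6 (pY641) measured by MSD sandwich electrochemiluminescence. Signal minus unstimulated, normalized to DMSO; IC50 by variable-slope nonlinear regression.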

pSTAT6 (pY641-STAT6) = molecular target: T2, pSTAT6 (pY641-STAT6) (Homo sapiens, UniProt P42226); assay: MSD-pSTAT-PBMC Assay (pSTAT6, IL-4 stimulated); type: cell-based; conditions: compound 3 hrs, then 1 ng/mL IL-4 for 10 min
T2 construct: host or cells: cryopreserved PBMC
T2 sequence (P42226 1-847): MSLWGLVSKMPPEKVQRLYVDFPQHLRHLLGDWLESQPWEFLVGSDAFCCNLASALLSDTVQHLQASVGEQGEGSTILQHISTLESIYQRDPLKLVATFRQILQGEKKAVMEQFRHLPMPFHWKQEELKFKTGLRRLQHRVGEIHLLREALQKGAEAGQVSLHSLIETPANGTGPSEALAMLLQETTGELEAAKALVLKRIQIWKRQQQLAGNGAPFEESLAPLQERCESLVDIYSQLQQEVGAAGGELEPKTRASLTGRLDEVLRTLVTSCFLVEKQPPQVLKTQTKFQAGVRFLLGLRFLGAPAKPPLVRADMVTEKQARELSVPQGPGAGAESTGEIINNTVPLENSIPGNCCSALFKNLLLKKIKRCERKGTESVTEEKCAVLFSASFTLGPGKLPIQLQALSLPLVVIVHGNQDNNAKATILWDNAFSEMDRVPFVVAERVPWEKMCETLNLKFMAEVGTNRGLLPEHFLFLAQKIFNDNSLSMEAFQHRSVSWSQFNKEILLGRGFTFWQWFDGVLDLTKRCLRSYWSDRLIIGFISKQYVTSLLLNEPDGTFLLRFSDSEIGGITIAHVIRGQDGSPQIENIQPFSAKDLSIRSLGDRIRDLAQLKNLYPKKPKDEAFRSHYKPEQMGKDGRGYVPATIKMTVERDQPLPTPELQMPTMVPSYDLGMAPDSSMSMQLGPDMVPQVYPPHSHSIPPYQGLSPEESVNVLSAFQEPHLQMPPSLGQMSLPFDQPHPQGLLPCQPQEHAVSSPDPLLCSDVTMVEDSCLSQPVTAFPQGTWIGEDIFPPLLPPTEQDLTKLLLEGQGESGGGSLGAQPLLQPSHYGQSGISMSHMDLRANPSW
Excerpt: Cryopreserved Peripheral Blood Mononuclear Cells (PBMC) are from AllCells. Recombinant Human IL-4 and IL-6 are from Peprotech. Mouse monoclonal anti-STAT3 antibody, rabbit monoclonal anti-pY705-STAT3 antibody, rabbit monoclonal Anti-pY641-STAT6 antibody, and lysis buffer are from Cell Signaling Technology (CST). Mouse monoclonal anti-STAT6 antibody is from BioLegend. Assay plates, blocker, and anti-rabbit secondary antibody are from Meso Scale Discovery (MSD).
Cryopreserved PBMCs were thawed out and allowed to recover overnight in IMDM+10% heat-inactivated FBS prior to plating 50,000 (STAT3) or 25,000 (STAT6) cells per well in 96-well U-bottom tissue culture plates. Cells were treated with compound for 3 hrs, then stimulated with 10 ng/mL IL-6 (STAT3) or 1 ng/mL IL-4 (STAT6) for 10 min. Cells were then spun down and washed with ice-cold PBS prior to lysing the cell pellet with 1× lysis buffer (CST) with 1× HALT protease and phosphatase inhibitor cocktail (Thermo). Lysates were transferred to and incubated overnight at 4° C. with shaking in QuickPlex 96-well high bind assay plates (MSD) pre-coated overnight with 30 μL per well of 0.6 μg/mL mouse monoclonal anti-STAT3 antibody (STAT3) or 2 μg/mL mouse monoclonal anti-STAT6 antibody (STAT6) in 1×PBS, and pre-blocked for 1 hour with 3% Blocker-A (MSD). Captured protein in the assay plates were then washed and probed with 25 μL per well of 0.25 μg/ml rabbit monoclonal anti-pY705-STAT3 antibody (STAT3) or 0.18 μg/ml rabbit monoclonal Anti-pY641-STAT6 antibody (STAT6) in 1% Blocker-A for 1 hour at room temperature with shaking, then washed and probed with 25 ul per well of 1 ug/mi Sulfo-TAG Labeled Goat Anti-Rabbit Antibody (MSD) in 1% Blocker-A for 1 hour at room temperature with shaking. Assay plates were then washed and 150 μL of 1× Read Buffer-T (MSD) was added to each well prior to reading on an SQ120 MSD Plate Reader. Assay signal from each sample was subtracted by the signal from unstimulated control wells and normalized to DMSO control wells. IC50 values were calculated using Graph Pad Prism Dose-Response Nonlinear Regression with variable slope. For both pSTAT3 and pSTAT6 A=≤100 nM; B=>100-1000 nM; C=>1000-3000 nM; and D=>3 μM.

T1 sequence (P40763 whole entry): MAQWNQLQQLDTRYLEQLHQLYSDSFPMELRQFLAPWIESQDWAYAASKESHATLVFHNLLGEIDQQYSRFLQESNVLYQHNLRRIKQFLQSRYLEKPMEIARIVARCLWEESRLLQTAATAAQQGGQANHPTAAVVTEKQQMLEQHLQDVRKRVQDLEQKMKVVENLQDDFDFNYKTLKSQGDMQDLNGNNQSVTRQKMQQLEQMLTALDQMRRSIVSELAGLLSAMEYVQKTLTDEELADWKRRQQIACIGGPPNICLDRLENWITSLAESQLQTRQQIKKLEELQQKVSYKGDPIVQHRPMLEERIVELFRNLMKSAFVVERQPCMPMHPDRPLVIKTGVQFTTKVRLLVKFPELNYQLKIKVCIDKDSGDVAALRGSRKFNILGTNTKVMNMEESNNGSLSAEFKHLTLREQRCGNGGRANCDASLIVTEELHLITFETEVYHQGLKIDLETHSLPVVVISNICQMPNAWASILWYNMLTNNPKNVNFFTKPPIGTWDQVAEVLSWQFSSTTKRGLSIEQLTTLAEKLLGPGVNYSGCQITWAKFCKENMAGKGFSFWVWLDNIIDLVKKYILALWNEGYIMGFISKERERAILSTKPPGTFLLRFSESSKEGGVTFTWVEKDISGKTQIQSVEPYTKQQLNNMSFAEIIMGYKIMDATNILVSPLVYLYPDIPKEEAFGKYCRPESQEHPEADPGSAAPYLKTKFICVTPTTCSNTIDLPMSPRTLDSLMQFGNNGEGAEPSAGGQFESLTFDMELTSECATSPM

| SMILES | IC50 (pSTAT3 (pY705-STAT3)) [µM] | IC50 (pSTAT6 (pY641-STAT6)) [µM] |
| --- | --- | --- |
| CC(C)CC(=O)SCCOP(=O)(OCOC(=O)OC(C)C)C(F)(F)c1ccc2sc(C(=O)N[C@H]3C[C@@H]4C[C@@H]4C[C@H]4CC[C@@H](C(=O)N5CC(C(=O)N6CCOCC6)C5)N4C3=O)cc2c1 (stereo partly drawn) [Compound 141, S-(2-(((difluoro(2-(((3S,6S,7aS, 8aR,9aR)-3-(3-(morpholine-4-carbonyl)azetidine-1-carbonyl)-5-oxodecahydro-1H-cyclopropa [d]pyrrolo[1,2-a]azocin-6-yl)carbamoyl)benzo[b]thiophen-5-yl)methyl)(((iso-propoxy-carbonyl)oxy)methoxy)phos-phoryl)oxy)ethyl) 3-methylbutane thioate] | < 0.1 | 1 to 3 |
| CC(=O)N1C[C@@H](F)[C@@H](NC(=O)[C@@H]2CC[C@@H]3C[C@@H]4C[C@@H]4C[C@H](NC(=O)c4cc5cc(C(F)(F)P(=O)(OCCSC(=O)CC(C)C)OCCSC(=O)CC(C)C)ccc5s4)C(=O)N32)C1 [Compound 142, S,S′-(((((2-(((3S,6S,7aR, 8aS,9aR)-3-(((3S,4R)-1-acetyl-4-fluoropyrrolidin-3-yl)carbamoyl)-5-oxodecahydro-1H-cyclopropa [d]pyrrolo[1,2-a]azocin-6-yl)carbamoyl)benzo[b]thiophen-5-yl)difluoromethyl)phosphoryl)bis(oxy))bis(ethane-2,1-diyl)) bis(3-methylbutane thioate)] | < 0.1 | 1 to 3 |
| C[C@@H](NP(=O)(Cc1ccc2sc(C(=O)N[C@H]3C[C@@H]4C[C@@H]4C[C@H]4CC[C@@H](C(=O)N5CC(C(=O)N6CCOCC6)C5)N4C3=O)cc2c1)Oc1ccccc1)C(=O)OCc1ccccc1 (stereo partly drawn) [Compound 143, benzyl (((2-(((3S,6S,7aS, 8aR,9aR)-3-(3-(morpholine-4-carbonyl)azetidine-1-carbonyl)-5-oxodecahydro-1H-cyclopropa [d]pyrrolo[1,2-a]azocin-6-yl)carbamoyl)benzo[b]thiophen-5-yl)methyl) (phenoxy)phosphoryl)-D-alaninate] | 0.1 to 1 | > 3 |
| CC(C)(C)C(=O)SCCOP(=O)(Cc1ccc2sc(C(=O)N[C@H]3C[C@@H]4C[C@@H]4C[C@H]4CC[C@@H](C(=O)N5CC(C(=O)N6CCOCC6)C5)N4C3=O)cc2c1)OCCSC(=O)C(C)(C)C [Compound 144, S,S′-(((((2-(((3S,6S,7aS, 8aR,9aR)-3-(3-(morpholine-4-carbonyl)azetidine-1-carbonyl)-5-oxodecahydro-1H-cyclopropa[d]pyrrolo[1,2-a]azocin-6-yl)carbamoyl)benzo[b]thiophen-5-yl)methyl)phosphoryl)bis(oxy))bis(ethane-2,1-diyl)) bis(2,2-dimethyl-propanethioate)] | 0.1 to 1 | > 3 |
| CC(C)(C)C(=O)OCOP(=O)(OCOC(=O)C(C)(C)C)C(F)(F)c1ccc2sc(C(=O)N[C@H]3C[C@@H]4C[C@@H]4C[C@H]4CC[C@@H](C(=O)N5CC(C(=O)N6CCOCC6)C5)N4C3=O)cc2c1 [Compound 145, (((difluoro(2-(((3S,6S,7aS, 8aR,9aR)-3-(3-(morpholine-4-carbonyl)azetidine-1-carbonyl)-5-oxodecahydro-1H-cyclopropa [d]pyrrolo[1,2-a]azocin-6-yl)carbamoyl)benzo[b]thiophen-5-yl)methyl)phosphoryl)bis(oxy)) bis(methylene) bis(2,2-dimethyl-propanoate)] | < 0.1 | 1 to 3 |

Second part, the compound after the results:

| IC50 (pSTAT3 (pY705-STAT3)) [µM] | IC50 (pSTAT6 (pY641-STAT6)) [µM] | SMILES |
| --- | --- | --- |
| > 3 | > 3 | CC(C)(CO)C(=O)SCCOP(=O)(Cc1ccc2sc(C(=O)N[C@H]3C[C@@H]4C[C@@H]4C[C@H]4CC[C@@H](C(=O)N5CC(n6ccnc6)C5)N4C3=O)cc2c1)OCCSC(=O)C(C)(C)CO [Compound 146, S,S′-(((((2-(((3S,6S,7aS, 8aR,9aR)-3-(3-(1H-imidazol-1-yl)azetidine-1-carbonyl)-5-oxodecahydro-1H-cyclopropa[d]pyrrolo[1,2-a]azocin-6-yl)carbamoyl)benzo[b]thiophen-5-yl)methyl)phosphoryl)bis(oxy))bis(ethane-2,1-diyl)) bis(3-hydroxy-2,2-dimethyl-propanethioate)] |
| 0.1 to 1 | > 3 | CC(C)OC(=O)OCOP(=O)(Cc1ccc2sc(C(=O)N[C@H]3C[C@@H]4C[C@@H]4C[C@H]4CC[C@@H](C(=O)N5CC(C(=O)N6CCOCC6)C5)N4C3=O)cc2c1)OCOC(=O)OC(C)C [Compound 148] |
| 1 to 3 | > 3 | CCCC(=O)SCCOP(=O)(Cc1ccc2sc(C(=O)N[C@H]3C[C@@H]4C[C@@H]4C[C@H]4CC[C@@H](C(=O)N5CC(C(=O)N6CCOCC6)C5)N4C3=O)cc2c1)OCCSC(=O)CCC [Compound 149, S,S′-(((((2-(((3S,6S,7aS, 8aR,9aR)-3-(3-(morpholine-4-carbonyl)azetidine-1-carbonyl)-5-oxodecahydro-1H-cyclopropa[d]pyrrolo[1,2-a]azocin-6-yl)carbamoyl)benzo[b]thiophen-5-yl)methyl)phosphoryl)bis(oxy))bis(ethane-2,1-diyl)) dibutanethioate] |
| < 0.1 | > 3 | CC(C)(C)C(=O)OCOP(=O)(Cc1ccc2sc(C(=O)N[C@H]3C[C@@H]4C[C@@H]4C[C@H]4CC[C@@H](C(=O)N5CC(C(=O)N6CCOCC6)C5)N4C3=O)cc2c1)OCOC(=O)C(C)(C)C [Compound 150, ((((2-(((3S,6S, 7aS,8aR,9aR)-3-(3-morpholine-4-carbonyl)azetidine-1-carbonyl)-5-oxodecahydro-1H-cyclopropa [d]pyrrolo[1,2-a]azocin-6-yl)carbamoyl)benzo [b]thiophen-5-yl)methyl)phosphoryl) bis(oxy)) bis(methylene) bis(2,2-dimethyl-propanoate)] |
| 0.1 to 1 | > 3 | CC(C)(C)C(=O)SCCOP(=O)(Cc1ccc2sc(C(=O)N[C@H]3C[C@@H]4C[C@@H]4C[C@H]4CC[C@@H](C(=O)N5CC(n6ccnc6)C5)N4C3=O)cc2c1)OCCSC(=O)C(C)(C)C [Compound 151, S,S′-(((((2-(((3S,6S,7aS, 8aR,9aR)-3-(3-(1H-imidazol-1-yl)azetidine-1-carbonyl)-5-oxodecahydro-1H-cyclopropa [d]pyrrolo[1,2-a]azocin-6-yl)carbamoyl)benzo[b]thiophen-5-yl)methyl)phosphoryl)bis(oxy))bis(ethane-2,1-diyl)) bis(2,2-dimethyl-propanethioate)] |
| < 0.1 | 0.1 to 1 | CC(C)OC(=O)OCOP(=O)(OCOC(=O)OC(C)C)[C@@H](F)c1ccc2sc(C(=O)N[C@H]3C[C@H]4C[C@H]4C[C@H]4CC[C@@H](C(=O)N5CC(c6cccnc6)C5)N4C3=O)cc2c1 [Compound 152, ((((R)-fluoro(2-(((3S,6S,7aR, 8aS,9aR)-5-oxo-3-(3-(pyridin-3-yl)azetidine-1-carbonyl)decahydro-1H-cyclopropa[d]pyrrolo[1,2-a]azocin-6-yl)carbamoyl)benzo[b]thiophen-5-yl)methyl)phosphoryl)bis(oxy)) bis(methylene) diisopropyl bis(carbonate)] |
